From ChEMBL document CHEMBL1155393, “Rational design of potent GSK3beta inhibitors with selectivity for Cdk1 and Cdk2” (Bioorg Med Chem Lett, 2010)

Columns and labels:
[1] = biological target: Glycogen synthase kinase-3 beta (Homo sapiens, UniProt P49841); assay: Inhibition of human recombinant GSK3-beta using gamma[33P]-ATP after 30 mins by scintillation proximity assay
[2] = biological target: Aurora kinase A (Homo sapiens) (UniProt O14965); assay: Inhibition of Aurora kinase 2
[3] = biological target: Microtubule-associated protein tau (Rattus norvegicus, UniProt P19332); assay: Inhibition of Tau phosphorylation in rat cerebral cortex after 120 mins by chemiluminescence assay; assay type: tissue-based
Chain of Microtubule-associated protein tau (P19332 whole entry): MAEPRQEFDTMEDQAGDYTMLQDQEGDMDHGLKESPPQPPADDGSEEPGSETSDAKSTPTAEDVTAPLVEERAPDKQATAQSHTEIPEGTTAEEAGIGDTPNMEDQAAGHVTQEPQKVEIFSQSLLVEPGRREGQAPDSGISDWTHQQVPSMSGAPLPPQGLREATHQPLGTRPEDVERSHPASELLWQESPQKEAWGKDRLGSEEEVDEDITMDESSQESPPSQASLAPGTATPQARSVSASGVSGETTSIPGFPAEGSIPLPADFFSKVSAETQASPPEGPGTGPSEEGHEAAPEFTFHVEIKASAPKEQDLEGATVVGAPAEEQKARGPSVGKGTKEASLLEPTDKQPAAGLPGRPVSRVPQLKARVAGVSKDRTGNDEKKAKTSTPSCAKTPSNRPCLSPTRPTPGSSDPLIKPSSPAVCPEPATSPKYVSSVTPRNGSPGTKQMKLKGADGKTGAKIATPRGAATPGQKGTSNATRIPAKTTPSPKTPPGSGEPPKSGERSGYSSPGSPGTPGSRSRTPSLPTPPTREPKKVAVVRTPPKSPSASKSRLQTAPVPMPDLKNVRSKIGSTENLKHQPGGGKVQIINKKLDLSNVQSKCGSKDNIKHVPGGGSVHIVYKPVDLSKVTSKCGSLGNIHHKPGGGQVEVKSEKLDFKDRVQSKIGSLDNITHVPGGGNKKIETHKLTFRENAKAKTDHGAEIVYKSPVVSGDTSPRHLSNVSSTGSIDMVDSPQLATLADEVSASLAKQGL

[4] = biological target: Cyclin-dependent kinase 2 (Homo sapiens, UniProt P24941)
[5] = biological target: Cyclin-dependent kinase 1 (Homo sapiens, UniProt P06493); assay: Inhibition of Cdk1
Chain of Cyclin-dependent kinase 1 (P06493 whole entry): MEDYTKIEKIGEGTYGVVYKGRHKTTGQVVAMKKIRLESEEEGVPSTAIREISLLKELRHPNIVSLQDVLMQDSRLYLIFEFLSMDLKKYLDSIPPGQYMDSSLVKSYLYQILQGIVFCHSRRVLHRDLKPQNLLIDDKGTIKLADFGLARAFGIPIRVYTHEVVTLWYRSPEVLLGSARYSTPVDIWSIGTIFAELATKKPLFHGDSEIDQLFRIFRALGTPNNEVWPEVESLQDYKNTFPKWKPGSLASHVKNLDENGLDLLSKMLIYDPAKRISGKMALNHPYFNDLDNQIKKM

Chain of Glycogen synthase kinase-3 beta (P49841 whole entry): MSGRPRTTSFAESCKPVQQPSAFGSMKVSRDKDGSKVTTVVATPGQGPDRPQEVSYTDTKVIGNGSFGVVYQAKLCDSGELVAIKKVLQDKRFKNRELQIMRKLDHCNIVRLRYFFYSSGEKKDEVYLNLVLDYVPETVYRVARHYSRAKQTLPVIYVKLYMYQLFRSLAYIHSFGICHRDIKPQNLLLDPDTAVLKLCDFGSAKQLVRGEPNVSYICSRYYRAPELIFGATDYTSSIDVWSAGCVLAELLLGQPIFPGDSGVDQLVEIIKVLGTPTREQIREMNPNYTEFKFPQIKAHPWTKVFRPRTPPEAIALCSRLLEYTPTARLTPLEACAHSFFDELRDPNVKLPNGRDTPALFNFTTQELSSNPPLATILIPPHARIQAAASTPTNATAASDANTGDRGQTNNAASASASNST
Chain of Aurora kinase A (Homo sapiens) (O14965 whole entry, looked up): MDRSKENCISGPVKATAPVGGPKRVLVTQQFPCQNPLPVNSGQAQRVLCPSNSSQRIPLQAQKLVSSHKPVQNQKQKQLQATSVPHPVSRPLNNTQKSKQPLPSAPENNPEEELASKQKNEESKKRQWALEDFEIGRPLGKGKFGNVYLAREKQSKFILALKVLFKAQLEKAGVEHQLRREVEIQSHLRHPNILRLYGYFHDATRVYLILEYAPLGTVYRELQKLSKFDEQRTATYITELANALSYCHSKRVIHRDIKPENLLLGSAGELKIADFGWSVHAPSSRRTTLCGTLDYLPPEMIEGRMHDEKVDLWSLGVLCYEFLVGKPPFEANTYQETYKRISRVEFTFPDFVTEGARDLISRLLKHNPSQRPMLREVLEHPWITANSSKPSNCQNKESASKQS

| Structure (SMILES) | IC50 [1] [µM] | further results |
| --- | --- | --- |
| CCCC(=O)Nc1n[nH]c2cc(Cl)c(-c3ccc(CC)cc3)cc12 | 0.012 | – |
| CCCC(=O)Nc1n[nH]c2cc(Cl)c(-c3ccoc3)cc12 | 0.011 | – |
| CCCC(=O)Nc1n[nH]c2cc(Cl)c(-c3ccncc3)cc12 | 0.05 | – |
| CCCC(=O)Nc1n[nH]c2cc(-c3ccc(O)cc3)c(-c3ccoc3)cc12 | 0.098 | – |
| CCCC(=O)Nc1n[nH]c2cc(-c3ccc(Oc4ccccc4)cc3)c(-c3ccc(Oc4ccccc4)cc3)cc12 | > 10 | – |
| CCCC(=O)Nc1n[nH]c2cc(Cc3ccccc3)ccc12 | 4.14 | – |
| CCCC(=O)Nc1n[nH]c2cc(Cl)ccc12 | 0.354 | – |
| CCCC(=O)Nc1n[nH]c2cc(-c3ccc4c(c3)COO4)ccc12 | 25 | – |
| O=C(O)CCC(=O)Nc1n[nH]c2cc(Cl)ccc12 | 1.18 | – |
| CCCC(=O)Nc1n[nH]c2cc(-c3cc(Cl)cc(Cl)c3)ccc12 | 5.41 | – |
| CCCC(=O)Nc1n[nH]c2cc(CCc3ccccc3)ccc12 | 8.53 | – |
| N#Cc1ccc(-c2ccc3c(NC(=O)CCC(=O)O)n[nH]c3c2)cc1 | 20.5 | – |
| CCCC(=O)Nc1n[nH]c2cc(-c3ccc(OCc4ccccc4)cc3)ccc12 | 1.18 | – |
| CCCC(=O)Nc1n[nH]c2cc(-c3ccccc3Cl)ccc12 | 1.35 | – |
| C/C=C/c1ccc2c(NC(=O)CCC)n[nH]c2c1 | 2.46 | – |
| CCCC(=O)Nc1n[nH]c2c(F)c(Cl)c(-c3ccccc3)cc12 | 0.006 | IC50 [3]: 0.25 µM; IC50 [4]: 3.16 µM; IC50 [5]: 2.5 µM |
| CCCC(=O)Nc1n[nH]c2cc(C(F)(F)F)ccc12 | 0.195 | – |

| Structure (SMILES) | IC50 [1] [µM] | further results |
| --- | --- | --- |
| CCCC(=O)Nc1n[nH]c2cc(Br)ccc12 | 0.198 | – |
| CCCC(=O)Nc1n[nH]c2cc(-c3ccc(O)cc3Cl)ccc12 | 0.055 | – |
| CCCC(=O)Nc1n[nH]c2cc(-c3ccc(O)cc3)c(-c3ccco3)cc12 | 0.014 | – |
| CCCC(=O)Nc1n[nH]c2cc(Cl)c(-c3ccc([N+](=O)[O-])cc3)cc12 | 0.018 | – |
| CCCC(=O)Nc1n[nH]c2cc(Cl)c(-c3ccc(F)cc3)cc12 | 0.022 | – |
| CCCC(=O)Nc1n[nH]c2cc(Cl)c(-c3ccc(OCc4ccccc4)cc3)cc12 | 0.023 | – |
| CCCC(=O)Nc1n[nH]c2cc(-c3ccc(O)cc3)c(-c3cccnc3)cc12 | 0.149 | – |
| CCCC(=O)Nc1n[nH]c2cc(-c3ccc(O)cc3)c(-c3ccc(CC)cc3)cc12 | 0.049 | – |
| CCCC(=O)Nc1n[nH]c2cc(-c3ccc(O)cc3)c(-c3ccc(O)cc3)cc12 | 0.056 | – |
| CCCC(=O)Nc1n[nH]c2cc(-c3ccc(O)cc3)c(-c3ccccc3)cc12 | 0.055 | – |
| CCCC(=O)Nc1n[nH]c2cc(-c3ccccc3)c(-c3ccccc3)cc12 | 1.72 | – |
| CCCC(=O)Nc1n[nH]c2cc(-c3ccc(O)cc3)c(Br)cc12 | 0.005 | – |
| CCCC(=O)Nc1n[nH]c2cc(-c3cc(F)cc(F)c3)ccc12 | 2.89 | – |
| CCCC(=O)Nc1n[nH]c2cc(Cl)c(-c3ccccc3)cc12 | 0.007 | IC50 [3]: 0.4 µM; IC50 [5]: 0.1 µM |
| CCCC(=O)Nc1n[nH]c2cc(Cl)c(-c3ccc(O)cc3)cc12 | 0.01 | – |
| CCCC(=O)Nc1n[nH]c2c(Cl)c(Cl)c(-c3ccccc3)cc12 | 0.012 | IC50 [4]: > 10 µM |
| CCCC(=O)Nc1n[nH]c2cc(Cl)c(-c3ccc(C)cc3)cc12 | 0.014 | – |

Further lines, with some results ahead:

| IC50 [1] [µM] | Structure (SMILES) | further results |
| --- | --- | --- |
| 7.16 | CCCC(=O)Nc1n[nH]c2cc(-c3ccc(SC)cc3)ccc12 | – |
| > 100 | CCCC(=O)Nc1n[nH]c2cc(-c3ccc(CC)cc3)ccc12 | – |
| 10.5 | CCCC(=O)Nc1n[nH]c2cc(-c3ccc(C(F)(F)F)cc3)ccc12 | – |
| 0.027 | CCCC(=O)Nc1n[nH]c2cc(-c3ccc(O)c(O)c3)ccc12 | – |
| 0.044 | CCCC(=O)Nc1n[nH]c2cc(-c3ccc(O)cc3)ccc12 | IC50 [2]: > 30 µM |
| 0.935 | CCCC(=O)Nc1n[nH]c2cc(-c3ccsc3)ccc12 | – |
| 1.09 | CCCC(=O)Nc1n[nH]c2cc(-c3ccc(N)nc3)ccc12 | – |
| > 100 | CCCC(=O)Nc1n[nH]c2cc(-c3ccc([N+](=O)[O-])cc3)ccc12 | – |
| 5.01 | CCCC(=O)Nc1n[nH]c2cc(-c3ccc(F)cc3)ccc12 | – |
| 5.5 | CCCC(=O)Nc1n[nH]c2cc(-c3ccc(OC(F)(F)F)cc3)ccc12 | – |
| 17.1 | Cc1ccc(-c2ccc3c(NC(=O)CCC(=O)O)n[nH]c3c2)cc1 | – |
| 12.2 | CCCC(=O)Nc1n[nH]c2cc(-c3ccc(N(C)C)cc3)ccc12 | – |
| 16.8 | CCCC(=O)Nc1n[nH]c2cc(-c3ccc(O)nc3)ccc12 | – |
| 1.28 | CCCC(=O)Nc1n[nH]c2cc(-c3ccccc3)ccc12 | – |
| > 100 | CCCC(=O)Nc1n[nH]c2cc(-c3ccc(OC)cc3)ccc12 | – |
| > 100 | CCCC(=O)Nc1n[nH]c2cc(-c3ccc(Cl)cc3)ccc12 | – |
| 0.076 | CCCC(=O)Nc1n[nH]c2cc(-c3ccc(N)cc3)ccc12 | – |
| 0.094 | CCCC(=O)Nc1n[nH]c2cc(-c3cccc(O)c3)ccc12 | – |
| 0.26 | CCCC(=O)Nc1n[nH]c2cc(-c3ccoc3)ccc12 | – |
| 0.661 | CCCC(=O)Nc1n[nH]c2cc(-c3ccncc3)ccc12 | – |
| 3.81 | CCCC(=O)Nc1n[nH]c2cc(-c3ccc(C(C)(C)C)cc3)ccc12 | – |
| 0.008 | CCCC(=O)Nc1n[nH]c2cc(Cl)c(-c3ccc(N)cc3)cc12 | – |
